Test results: US10934263B2, “Charged ion channel blockers and methods for use” (Nocion Therapeutics, Inc., priority 2019, dated 2021)

Experiments:
[1] = target: T1, NaV1.7 (Homo sapiens, UniProt Q15858); experiment: Whole cell patch clamp, internal block of NaV1.7 current (compound in internal solution); type: cell-based; conditions: % inhibition at 10 μM, compound applied internally, manual patch clamp; read-out: Nav1.7 Intracellular Inhibition
T1 construct: expressed in transfected cells; tetracycline-inducible, kept under hygromycin and blasticidin
T1 sequence (Q15858 whole entry): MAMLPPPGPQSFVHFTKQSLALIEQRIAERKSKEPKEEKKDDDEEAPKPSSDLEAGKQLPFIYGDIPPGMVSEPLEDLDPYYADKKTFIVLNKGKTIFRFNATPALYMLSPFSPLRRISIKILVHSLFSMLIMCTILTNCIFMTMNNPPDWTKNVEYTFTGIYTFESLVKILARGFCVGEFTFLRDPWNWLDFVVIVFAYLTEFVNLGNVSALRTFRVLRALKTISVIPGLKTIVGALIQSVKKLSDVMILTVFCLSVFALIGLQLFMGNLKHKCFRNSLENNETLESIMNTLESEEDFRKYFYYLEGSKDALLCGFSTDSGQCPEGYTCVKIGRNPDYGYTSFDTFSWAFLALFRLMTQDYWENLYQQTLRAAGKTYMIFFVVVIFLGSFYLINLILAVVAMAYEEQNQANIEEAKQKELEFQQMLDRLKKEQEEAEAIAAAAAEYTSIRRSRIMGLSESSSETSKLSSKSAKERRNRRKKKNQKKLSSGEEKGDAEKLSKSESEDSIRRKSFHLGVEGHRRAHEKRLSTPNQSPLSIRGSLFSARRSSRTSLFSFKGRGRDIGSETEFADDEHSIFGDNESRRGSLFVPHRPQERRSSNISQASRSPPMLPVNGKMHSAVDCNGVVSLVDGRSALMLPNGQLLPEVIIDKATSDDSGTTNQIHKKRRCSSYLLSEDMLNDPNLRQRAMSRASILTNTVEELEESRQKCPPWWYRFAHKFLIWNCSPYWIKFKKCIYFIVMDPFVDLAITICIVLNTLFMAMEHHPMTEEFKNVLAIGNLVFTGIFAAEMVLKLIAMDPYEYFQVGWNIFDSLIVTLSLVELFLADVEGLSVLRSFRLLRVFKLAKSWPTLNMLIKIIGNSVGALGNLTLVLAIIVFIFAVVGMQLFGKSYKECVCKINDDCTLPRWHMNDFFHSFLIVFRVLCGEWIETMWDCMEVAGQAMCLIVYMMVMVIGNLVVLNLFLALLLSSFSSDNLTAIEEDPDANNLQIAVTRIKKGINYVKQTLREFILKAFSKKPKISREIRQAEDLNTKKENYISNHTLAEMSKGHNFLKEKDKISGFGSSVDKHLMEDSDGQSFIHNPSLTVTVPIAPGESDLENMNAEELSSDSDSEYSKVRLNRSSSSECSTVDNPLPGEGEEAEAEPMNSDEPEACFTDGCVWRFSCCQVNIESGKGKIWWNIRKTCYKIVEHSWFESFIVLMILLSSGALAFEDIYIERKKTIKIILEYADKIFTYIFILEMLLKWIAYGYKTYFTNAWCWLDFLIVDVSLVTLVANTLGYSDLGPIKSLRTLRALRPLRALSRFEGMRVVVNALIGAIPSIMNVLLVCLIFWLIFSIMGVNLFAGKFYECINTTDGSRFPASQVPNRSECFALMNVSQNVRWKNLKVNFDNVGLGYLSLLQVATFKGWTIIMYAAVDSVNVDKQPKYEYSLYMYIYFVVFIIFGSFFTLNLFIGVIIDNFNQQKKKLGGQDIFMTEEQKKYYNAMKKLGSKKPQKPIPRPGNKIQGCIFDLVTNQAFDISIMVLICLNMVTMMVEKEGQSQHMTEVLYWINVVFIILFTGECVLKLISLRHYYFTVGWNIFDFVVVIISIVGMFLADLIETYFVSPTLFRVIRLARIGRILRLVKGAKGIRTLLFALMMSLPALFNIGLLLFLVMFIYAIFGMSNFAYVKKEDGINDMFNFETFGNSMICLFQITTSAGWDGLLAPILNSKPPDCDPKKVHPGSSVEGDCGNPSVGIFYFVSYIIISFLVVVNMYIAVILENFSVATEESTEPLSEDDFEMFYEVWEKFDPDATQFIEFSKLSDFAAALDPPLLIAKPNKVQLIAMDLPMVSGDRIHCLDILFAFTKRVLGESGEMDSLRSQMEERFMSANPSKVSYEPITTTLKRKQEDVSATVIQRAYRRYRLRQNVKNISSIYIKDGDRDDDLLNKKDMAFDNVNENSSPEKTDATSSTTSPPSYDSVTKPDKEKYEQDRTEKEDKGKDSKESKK
Experimental: Representative compounds of the invention were synthesized according to the described methods and tested for the ability to inhibit voltage-gated sodium channels.
NaV1.7 was expressed upon induction with tetracycline. Cells were cultured in DMEM containing 10% dialyzed Fetal Bovine Serum (VWR, Radnor, Pa.), 1% Glutamax (VWR, Radnor, Pa.), 1% Penicillin-Streptomycin (VWR, Radnor, Pa.), 100 mg/L Hygromycin (Thermo Fisher Scientific, Waltham, Mass. and 5 mg/L Blasticidin (Alfa Aesar, Haverhill, Mass.). Cells were grown and maintained at 37° C. in a humidified environment containing 10% CO2 in air. Cells were detached from the culture flask for passage and harvested using 0.05% Trypsin-EDTA (Thermo Fisher Scientific, Waltham, Mass.). To induce NaV1.7, cells were induced with tetracycline (0.1-1 μg/mL, IBI Scientific, Peosta, Iowa) the day before recording and plated onto 24-well plates. Cells were washed with DPBS (VWR, Radnor, Pa.), trypsinized and then triturated five times in 10 mL of growth media to break apart cell aggregates. For one 24-well plate, 2 mL of cell suspension was mixed with 23 mL of fresh growth media and 0.1-1 μg/mL tetracycline added. 1 ml of mixed media with cells was then added to each well of a 24-well plate, with a 12 mm coverslip already placed in the bottom of the well. Cells were then incubated in 37° C. and 10% CO2 overnight.
The intracellular solution contained the following (in mM) CsCl 135, NaCl 10, EGTA 10, HEPES 10, MgCl2 2, adjusted to pH 7.2 with CsOH. The external solution was a normal Ringer solution containing (in mM) NaCl 155, HEPES 10, glucose 10, KCl 3.5, CaCl2 1.5, MgCl2 1 adjusted to pH 7.4 with NaOH. CsCl is from Alfa Aesar, Haverhill, Mass. All other chemicals are from Sigma-Aldrich, St. Louis, Mo. In order to test the degree of internal block by test compounds the compounds were dissolved in internal solution at the indicated test concentration. […] In order to test the degree of external block by test compounds the compounds were dissolved in external solution at the indicated test concentration.
18-24 hours after cells were induced with tetracycline, coverslips were placed into a chamber filled with Normal Ringer solution at room temperature and the chamber placed on a microscope. Pipettes were pulled from borosilicate glass on a P97 puller (Sutter Instrument, Novato, Calif.) and polished with a MF-830 Microforge (Narishige International USA, Inc, Amityville, N.Y.) to have a resistance of 1.5-2.5 MΩ when filled with CsCl internal solution at room temperature. Healthy cells (those that are round and translucent with no visible blemishes) were chosen for seal formation. A seal was formed between the pipette and the cell, and a brief pulse of suction was used to “break in” and establish the whole-cell configuration. The membrane potential was held at −100 mV before the voltage protocol began. Only cells with series resistance between 1.5-5 MΩ were retained for analysis. The voltage protocol was as follows: Cells were held at −100 mV for 12 ms followed by a hyperpolarizing step to −105 mV for 12 ms to monitor the leak. Cells were then stepped back to −100 mV for 40 ms. Cells were then depolarized to −20 mV for 10 ms and then returned to −100 mV for 26 ms.
Once the recording was started, the voltage protocol was run at 30 second intervals for 5 minutes to get a stable baseline. This was followed by four 30-second periods of 5 Hz stimulation of the same voltage protocol separated by 1 minute of rest which was then followed by 0.33 Hz stimulation after the last train. Currents were recorded using PatchMaster software with Heka EPC10 (HEKA Electronics, Lambrecht, Germany). Only cells with inward current amplitudes at −20 mV between 400 pA and 4 nA were accepted. In addition, cells having leak currents greater than 10% of their current amplitudes were discarded. […]

[2] = target: T1, NaV1.7; experiment: Automated patch clamp (Qube 384), external block of NaV1.7 in HEK293 cells; type: cell-based; conditions: compound in external solution, read-out: Nav1.7 Extracellular Inhibition (IC50)
Experimental: (§1) NaV1.7 was expressed in HEK293 cells upon induction with tetracycline. Cells were cultured in DMEM containing 10% dialyzed Fetal Bovine Serum (VWR, Radnor, Pa.), 1% Glutamax (VWR, Radnor, Pa.), 1% Penicillin-Streptomycin (VWR, Radnor, Pa.), 100 mg/L Hygromycin (Thermo Fisher Scientific, Waltham, Mass. and 5 mg/L Blasticidin (Alfa Aesar, Haverhill, Mass.). Cells were grown and maintained at 37° C. in a humidified environment containing 10% CO2 in air. Cells were detached from the culture flask for passage and harvested using 0.05% Trypsin-EDTA (Thermo Fisher Scientific, Waltham, Mass.). To induce NaV1.7, cells were induced with tetracycline (0.1-1 μg/mL, IBI Scientific, Peosta, Iowa) the day before recording.
(§2) Before experiments, cells were washed with DPBS (VWR, Radnor, Pa.), digested with Detachin (VWR Radnor, Pa.) and then triturated 10 times in CHO Serum-Free Media (VWR Radnor, Pa.) to resuspend the cells and to break apart cell aggregates. Cells were counted and the final concentration was set at 2-5 million cells per mL.
(§3) The intracellular solution contained the following: 140 mM CsF, 1 mM/5 mM EGTA/CsOH, 10 mM HEPES, 10 mM NaCl, adjusted to pH 7.3 with CsOH, and osmolality to 320 with sucrose. The external solution contained the following: 145 mM NaCl, 4 mM KCl, 1 mM MgCl2, 2 mM CaCl2, 10 mM HEPES, 10 mM Glucose, adjusted to pH 7.4 with CsOH and osmolality to 305 with sucrose. All chemicals are from Sigma-Aldrich, St. Louis, Mo. In order to test the degree of internal block by test compounds, the compounds were dissolved in internal solution at the indicated test concentration. […] In order to test the degree of external block by test compounds the compounds were dissolved in external solution at the indicated test concentration.
(§4) Automated Patch Clamps were performed on Qube 384 (Sophion Bioscience, Woburn Mass.) with multihole Qchips at a temperature setting of 22 degrees. The whole cells configuration was formed with default Qube seal and break-in parameter. The membrane potential was held at −100 mV before the voltage protocol began. Two voltage protocols were followed.
(§5) Step 1: Cells were held at −100 mV with a depolarized pulse to −20 mV for 10 ms, the interval was set at 5 s. Currents were corrected by default leak subtraction from every pulse. The duration was set at 5 mins.
(§6) Step 2: Cells were held at −100 mV with a depolarized pulse to −20 mV for 10 ms. The frequency was 5 Hz. Currents were corrected by leak subtraction calculated before step 2. The duration was set at 4 mins.
After Step 2, the external solution was changed with solutions containing test compounds. Qchips were held at −100 mV without pulsing. The total solution switching time was 8 minutes. After the external solution exchange, cells were recorded using the same procedure as step 2 for 10 minutes.
Data analysis was performed by Sophion Analyzer. Data were corrected with control cells (Non-Drug). The IC50 data were plotted with DR-plots/Hill function (a dose-response plot with a Hill fit).

[3] = target: T1, NaV1.7; experiment: Automated patch clamp (Qube 384), internal block of NaV1.7 in HEK293 cells; type: cell-based; conditions: compound in internal solution, read-out: Nav1.7 Intracellular Inhibition (IC50)
Experimental: as §1, §2, §3, §4, §5, §6
After Step 2, the Qchip was removed from the recording chamber. The internal solution was changed with solutions containing test compounds. Qchips were held at −100 mV without pulsing after being replaced in the recording chamber. The total solution switching time was 8 minutes. After the internal solution exchange, Cells were recorded and step 2 for repeated for 10 minutes.
Data analysis was performed by Sophion Analyzer. Cells were filtered with minimum 50 MOhm seal resistance and minimum 5 nA starting current. The rundown of the currents was corrected with control cells (Non-Drug). The remaining was calculated by averaging last 3 points in the end of experiments. The base line was calculated as the average of last 3 points of Step 2. IC50 curves were plotted with DR-plots/Hill function (a dose-response plot with a Hill fit). Data analysis was performed by Sophion Analyzer.

[4] = PAMPA membrane permeability assay; type: in vitro ADME; conditions: PAMPA permeability coefficient, GIT lipid, buffer pH 7.4, 4 hours incubation
Experimental: The PAMPA assay (pION, Inc., Woburn Mass.) was used to determine the ability of compounds of the invention to cross an artificial lipid membrane by passive diffusion. Test compounds were dissolved in DMSO (10 mM) and diluted 200-fold in buffer (pION Inc., pH 7.4) to provide 50 uM stock solutions. Buffer (150 μL) was added to a UV blank plate and stock solutions (150 μL) were transferred to a UV reference plate. The blank and reference spectrum were read using a spectrophotometer. Stock solutions (200 μL) were added to the donor plate of the PAMPA sandwich plate and an accept plate painted with GIT lipid (pION Inc, 5 μL) was placed on top. Buffer (200 μL) was added to the acceptor plate and the PAMPA sandwich plate was incubated for 4 hours. Aliquots (150 μL) from the acceptor plate were added to a UV plate and read as acceptor spectrum. Aliquots (150 μL) of the donor solutions were added to a UV analysis plate and read as donor spectrum. The permeability coefficient of test compounds was calculated using PAMPA Explorer™ software (version 3.5.0.4) based on the AUC of the reference plate, the donor plate, and the acceptor plate.

SMILES	inhibition at 10 µM [1] [%]	IC50 [2] [µM]	IC50 [3] [µM]	PAMPA (10^−6 cm/s) [4]
Cc1cccc(C)c1NC(=O)C[n+]1cc(F)c2ccccc2c1 [Compound 67]	40 to 70	< 10	3 to 10	
Cc1cccc(C)c1NC(=O)C[n+]1cc(N)cc(C(F)(F)F)c1 [Compound 91]		30 to 100	3 to 10	+ (<0.1 10^−6 cm/s)
CCOC(=O)CCn1ccc[n+]1CC(=O)Nc1c(C)cccc1C [Compound 80]		> 100	1 to 3	+ (<0.1 10^−6 cm/s)
Cc1cccc(C)c1NC(=O)C[n+]1cc(F)ccc1-c1ccccc1 [Compound 79]	> 95	30 to 100	1 to 3	
Cc1cccc(C)c1NC(=O)C[n+]1ccc(C(N)=O)c(C(F)(F)F)c1 [Compound 90]		> 100	3 to 10	+ (<0.1 10^−6 cm/s)
Cc1cccc(C)c1NC(=O)C[n+]1cccc(C(C)C)c1 [Compound 31]		> 100	1 to 3	++ (0.1-2.0 10^−6 cm/s)
Cc1cccc(C)c1NC(=O)C[n+]1cccn1C1CC1 [Compound 68]		> 100	1 to 3	+ (<0.1 10^−6 cm/s)
Cc1cccc(C)c1NC(=O)C[n+]1cccc(OC(C)C)c1 [Compound 87]		> 100	< 1	+ (<0.1 10^−6 cm/s)
Cc1cccc(C)c1NC(=O)C[n+]1cccn1Cc1ccccc1 [Compound 92]		> 100	1 to 3	+ (<0.1 10^−6 cm/s)
Cc1cccc(C)c1NC(=O)C[n+]1c(C)ccn1C [Compound 93]		> 100	3 to 10	+ (<0.1 10^−6 cm/s)
Cc1cccc(C)c1NC(=O)C[n+]1cccc(C(C)(C)C)c1 [Compound 32]	70 to 95	> 100	1 to 3	
Cc1cccc(C)c1NC(=O)C[n+]1c(C)ccn1C(C)C [Compound 102]		> 100	1 to 3	+ (<0.1 10^−6 cm/s)
Cc1cccc(C)c1NC(=O)C[n+]1c2ccc(Cl)cc2cn1C [Compound 96]	70 to 95	30 to 100	3 to 10	
COc1cc(C#N)c[n+](CC(=O)Nc2c(C)cccc2C)c1 [Compound 97]	70 to 95	< 10	10 to 30	
COc1cc(F)c[n+](CC(=O)Nc2c(C)cccc2C)c1 [Compound 78]		> 100	1 to 3	+ (<0.1 10^−6 cm/s)

More lines, now with the values ahead:

inhibition at 10 µM [1] [%]	IC50 [2] [µM]	IC50 [3] [µM]	PAMPA (10^−6 cm/s) [4]	SMILES
	> 100	1 to 3	+ (<0.1 10^−6 cm/s)	Cc1cccc(C)c1NC(=O)C[n+]1ccc(C)n1C(C)C [Compound 82]
	> 100	3 to 10	+ (<0.1 10^−6 cm/s)	Cc1cccc(C)c1NC(=O)C[n+]1cccn1CCC(C)C [Compound 74]
	> 100	3 to 10	+ (<0.1 10^−6 cm/s)	Cc1cccc(C)c1NC(=O)C[n+]1cccn1C1CCC1 [Compound 72]
	> 100	3 to 10	+ (<0.1 10^−6 cm/s)	Cc1cccc(C)c1NC(=O)C[n+]1cccc(OCc2ccccc2)c1 [Compound 88]
	> 100	3 to 10	+ (<0.1 10^−6 cm/s)	CCOC(=O)Cn1c(C)cc[n+]1CC(=O)Nc1c(C)cccc1C [Compound 86]
	> 100	3 to 10	+ (<0.1 10^−6 cm/s)	CCCC(C(=O)Nc1c(C)cccc1C)[n+]1ccccc1 (stereo not drawn) [Compound 107]
70 to 95	> 100	3 to 10		Cc1cccc(C)c1NC(=O)C[n+]1cccc(N)c1 [Compound 49]
70 to 95	> 100	1 to 3		CNC(=O)c1ccc[n+](CC(=O)Nc2c(C)cccc2C)c1 [Compound 40]
